Experimental data published in PubChem BioAssay AID2060909 (Molecular Pharmacology Branch, DTP, NCI, 2025).

Test system: 362531-283-R-J2-PDC complex spheroid viability
Experiment: Anticancer human tumor 362531-283-R-J2-PDC patient-derived colon adenocarcinoma cell line growth inhibition [RAS]
Conditions: for IC50: curve of first compound; for viability, T/C: stronger effect = lower value
Method in brief: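 Multi-cell-type spheroids: tumor cells plus HUVEC endothelial cells and mesenchymal stem cells. RAS-pathway inhibitors were combined with targeted agents, each dosed in half-log steps down from clinical Cmax, or from 10 microM when Cmax was unknown.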

[1] = second compound 0.000949 µM, first compound 0.000949 µM
[2] = second compound 0.000949 µM, first compound 0.003 µM
[3] = second compound 0.000949 µM, first compound 0.00949 µM
[4] = second compound 0.000949 µM, first compound 0.03 µM
[5] = second compound 0.000949 µM, first compound 0.0949 µM
[6] = second compound 0.000949 µM, first compound 0.3 µM
[7] = second compound 0.003 µM, first compound 0.000949 µM
[8] = second compound 0.003 µM, first compound 0.003 µM
[9] = second compound 0.003 µM, first compound 0.00949 µM
[10] = second compound 0.003 µM, first compound 0.03 µM
[11] = second compound 0.003 µM, first compound 0.0949 µM
[12] = second compound 0.003 µM, first compound 0.3 µM
[13] = second compound 0.00949 µM, first compound 0.000949 µM
[14] = second compound 0.00949 µM, first compound 0.003 µM
[15] = second compound 0.00949 µM, first compound 0.00949 µM
[16] = second compound 0.00949 µM, first compound 0.03 µM
[17] = second compound 0.00949 µM, first compound 0.0949 µM
[18] = second compound 0.00949 µM, first compound 0.3 µM
[19] = second compound 0.03 µM, first compound 0.000949 µM
[20] = second compound 0.03 µM, first compound 0.003 µM
[21] = second compound 0.03 µM, first compound 0.00949 µM
[22] = second compound 0.03 µM, first compound 0.03 µM
[23] = second compound 0.03 µM, first compound 0.0949 µM
[24] = second compound 0.03 µM, first compound 0.3 µM
[25] = second compound 0.0949 µM, first compound 0.000949 µM
[26] = second compound 0.0949 µM, first compound 0.003 µM
[27] = second compound 0.0949 µM, first compound 0.00949 µM
[28] = second compound 0.0949 µM, first compound 0.03 µM
[29] = second compound 0.0949 µM, first compound 0.0949 µM
[30] = second compound 0.0949 µM, first compound 0.3 µM
[31] = second compound 0.3 µM, first compound 0.000949 µM
[32] = second compound 0.3 µM, first compound 0.003 µM
[33] = second compound 0.3 µM, first compound 0.00949 µM
[34] = second compound 0.3 µM, first compound 0.03 µM
[35] = second compound 0.3 µM, first compound 0.0949 µM
[36] = second compound 0.3 µM, first compound 0.3 µM
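Note: spheroids exposed to the agents for 7 days before readout.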
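Throughout, for viability, T/C: luminescence viability as percent of DMSO vehicle control wells.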

## C=CC(=O)N1CCN(c2nc(OCC3CCCN3C)nc3c(F)c(-c4nc(N)cc(C)c4C(F)(F)F)c(Cl)cc23)C(C)C1 (stereo unspecified) + CCn1c(-c2cc(N3CCN(C)CC3)cnc2C(C)OC)c2c3cc(ccc31)-c1csc(n1)CC(NC(=O)C1CC1C)C(=O)N1CCCC(N1)C(=O)OCC(C)(C)C2
Second compound 0.000949 µM
  IC50: > 1000 nM
Second compound 0.003 µM
  IC50: > 1000 nM
Second compound 0.00949 µM
  IC50: > 1000 nM
Second compound 0.03 µM
  IC50: > 1000 nM
Second compound 0.0949 µM
  IC50: > 1000 nM
Second compound 0.3 µM
  IC50: < 3.16 nM
Second compound 0.000949 µM, first compound 0.00316 µM
  viability, T/C: 101%
Second compound 0.000949 µM, first compound 0.01 µM
  viability, T/C: 100%
Second compound 0.000949 µM, first compound 0.0316 µM
  viability, T/C: 107%
Second compound 0.000949 µM, first compound 0.1 µM
  viability, T/C: 92.5%
Second compound 0.000949 µM, first compound 0.316 µM
  viability, T/C: 94.3%
Second compound 0.000949 µM, first compound 1 µM
  viability, T/C: 103%
Second compound 0.003 µM, first compound 0.00316 µM
  viability, T/C: 107%
Second compound 0.003 µM, first compound 0.01 µM
  viability, T/C: 103%
Second compound 0.003 µM, first compound 0.0316 µM
  viability, T/C: 97%
Second compound 0.003 µM, first compound 0.1 µM
  viability, T/C: 92%
Second compound 0.003 µM, first compound 0.316 µM
  viability, T/C: 104%
Second compound 0.003 µM, first compound 1 µM
  viability, T/C: 91.7%
Second compound 0.00949 µM, first compound 0.00316 µM
  viability, T/C: 93.7%
Second compound 0.00949 µM, first compound 0.01 µM
  viability, T/C: 108%
Second compound 0.00949 µM, first compound 0.0316 µM
  viability, T/C: 104%
Second compound 0.00949 µM, first compound 0.1 µM
  viability, T/C: 99.1%
Second compound 0.00949 µM, first compound 0.316 µM
  viability, T/C: 108%
Second compound 0.00949 µM, first compound 1 µM
  viability, T/C: 106%
Second compound 0.03 µM, first compound 0.00316 µM
  viability, T/C: 87.8%
Second compound 0.03 µM, first compound 0.01 µM
  viability, T/C: 104%
Second compound 0.03 µM, first compound 0.0316 µM
  viability, T/C: 86.8%
Second compound 0.03 µM, first compound 0.1 µM
  viability, T/C: 81.1%
Second compound 0.03 µM, first compound 0.316 µM
  viability, T/C: 95.7%
Second compound 0.03 µM, first compound 1 µM
  viability, T/C: 101%
Second compound 0.0949 µM, first compound 0.00316 µM
  viability, T/C: 88%
Second compound 0.0949 µM, first compound 0.01 µM
  viability, T/C: 87.5%
Second compound 0.0949 µM, first compound 0.0316 µM
  viability, T/C: 81.2%
Second compound 0.0949 µM, first compound 0.1 µM
  viability, T/C: 80.3%
Second compound 0.0949 µM, first compound 0.316 µM
  viability, T/C: 75.5%
Second compound 0.0949 µM, first compound 1 µM
  viability, T/C: 90.5%
Second compound 0.3 µM, first compound 0.00316 µM
  viability, T/C: 43%
Second compound 0.3 µM, first compound 0.01 µM
  viability, T/C: 57%
Second compound 0.3 µM, first compound 0.0316 µM
  viability, T/C: 41.2%
Second compound 0.3 µM, first compound 0.1 µM
  viability, T/C: 45.9%
Second compound 0.3 µM, first compound 0.316 µM
  viability, T/C: 45.9%
Second compound 0.3 µM, first compound 1 µM
  viability, T/C: 35%

## CC1(C)CCC(Nc2ncc(C(F)(F)F)c(-c3c[nH]c4c(P(C)(C)=O)c(C#N)ccc34)n2)CN1 (stereo unspecified) + CCn1c(-c2cc(N3CCN(C)CC3)cnc2C(C)OC)c2c3cc(ccc31)-c1csc(n1)CC(NC(=O)C1CC1C)C(=O)N1CCCC(N1)C(=O)OCC(C)(C)C2
Second compound 0.000949 µM
  IC50: > 300 nM
Second compound 0.003 µM
  IC50: > 300 nM
Second compound 0.00949 µM
  IC50: > 300 nM
Second compound 0.03 µM
  IC50: > 300 nM
Second compound 0.0949 µM
  IC50: > 300 nM
Second compound 0.3 µM
  IC50: < 0.949 nM
[1]
  viability, T/C: 104%
[2]
  viability, T/C: 97.3%
[3]
  viability, T/C: 100%
[4]
  viability, T/C: 99.7%
[5]
  viability, T/C: 93%
[6]
  viability, T/C: 95.1%
[7]
  viability, T/C: 104%
[8]
  viability, T/C: 102%
[9]
  viability, T/C: 104%
[10]
  viability, T/C: 97.1%
[11]
  viability, T/C: 101%
[12]
  viability, T/C: 95.3%
[13]
  viability, T/C: 103%
[14]
  viability, T/C: 110%
[15]
  viability, T/C: 101%
[16]
  viability, T/C: 100%
[17]
  viability, T/C: 105%
[18]
  viability, T/C: 104%
[19]
  viability, T/C: 101%
[20]
  viability, T/C: 107%
[21]
  viability, T/C: 93.7%
[22]
  viability, T/C: 92.9%
[23]
  viability, T/C: 98.6%
[24]
  viability, T/C: 98.5%
[25]
  viability, T/C: 85%
[26]
  viability, T/C: 82%
[27]
  viability, T/C: 75.9%
[28]
  viability, T/C: 82.2%
[29]
  viability, T/C: 82.2%
[30]
  viability, T/C: 102%
[31]
  viability, T/C: 40.9%
[32]
  viability, T/C: 52%
[33]
  viability, T/C: 60.3%
[34]
  viability, T/C: 58.7%
[35]
  viability, T/C: 68.5%
[36]
  viability, T/C: 76.8%

## CCc1c2c(nc3ccc(O)cc13)-c1cc3c(c(=O)n1C2)COC(=O)[C@]3(O)CC + CCn1c(-c2cc(N3CCN(C)CC3)cnc2C(C)OC)c2c3cc(ccc31)-c1csc(n1)CC(NC(=O)C1CC1C)C(=O)N1CCCC(N1)C(=O)OCC(C)(C)C2
Second compound 0.000949 µM
  IC50: 42.1 nM
Second compound 0.003 µM
  IC50: 37.8 nM
Second compound 0.00949 µM
  IC50: 41.4 nM
Second compound 0.03 µM
  IC50: 35.8 nM
Second compound 0.0949 µM
  IC50: 14.4 nM
Second compound 0.3 µM
  IC50: < 0.949 nM
[1]
  viability, T/C: 94.3%
[2]
  viability, T/C: 90.9%
[3]
  viability, T/C: 80.9%
[4]
  viability, T/C: 61.4%
[5]
  viability, T/C: 26.2%
[6]
  viability, T/C: 16.4%
[7]
  viability, T/C: 97.5%
[8]
  viability, T/C: 99.7%
[9]
  viability, T/C: 75.1%
[10]
  viability, T/C: 61.8%
[11]
  viability, T/C: 23.4%
[12]
  viability, T/C: 19.2%
[13]
  viability, T/C: 101%
[14]
  viability, T/C: 97.1%
[15]
  viability, T/C: 74.4%
[16]
  viability, T/C: 63.6%
[17]
  viability, T/C: 26.9%
[18]
  viability, T/C: 12.6%
[19]
  viability, T/C: 94.3%
[20]
  viability, T/C: 89.1%
[21]
  viability, T/C: 69.4%
[22]
  viability, T/C: 59.5%
[23]
  viability, T/C: 25.3%
[24]
  viability, T/C: 7.44%
[25]
  viability, T/C: 76.8%
[26]
  viability, T/C: 65.3%
[27]
  viability, T/C: 61.4%
[28]
  viability, T/C: 33.8%
[29]
  viability, T/C: 14.2%
[30]
  viability, T/C: 5.26%
[31]
  viability, T/C: 33.5%
[32]
  viability, T/C: 45.4%
[33]
  viability, T/C: 17.2%
[34]
  viability, T/C: 13.4%
[35]
  viability, T/C: 5.23%
[36]
  viability, T/C: 2.69%
